# From patent publication US7108996B2, “Method for increasing luminescence assay sensitivity” (Promega Corporation, priority 2000, dated 2006)
# Like-named read-outs stand apart in the source and are kept apart here.
# Experiments:
# [1] = tested on: Human embryonic kidney cells (293) stably expressing firefly luciferase (Luc+); experiment: Whole cell assay: firefly luminescence as indicator of cell viability; assay type: cell-based
# Description: (§1) To determine the effect of organic compounds on cell viability and to determine the ability of such compounds to reduce autoluminescence in the presence of living cells, the following experiment was performed. Human embryonic kidney cells (293, ATCC, Rockville, Md.) were used to generate a cell line that stably expresses the firefly luciferase (Luc+) gene. This stable cell line was made using the pCl-neo vector (Promega Corporation, Madison Wis., USA) and inserting the Luc+ gene between the Xba I and Sal I sites. The stable cell line was prepared using standard methods and the transformed cells were grown in wells of a microtiter plate in the presence of DMEM medium containing 10% FBS and 0.15 mg/ml G418. For experimental purposes, duplicate plates of cells were prepared using 96 well microtiter plates. One plate was used to examine viability, and the other plate was used to examine the effect on autoluminescence.
# To examine the effect of the organic compounds in cell viability, the media was removed from the cells and replaced with media containing the substrate for firefly luciferase, beetle luciferin, and the organic compounds at various concentrations. Passive diffusion of luciferin across the cell membrane together with the ATP oxygen and luciferase enzyme already contained within the cell, results in light production. Whereas, in compromised or damaged cells, intracellular ATP concentration is rapidly depleted, decreasing the firefly luminescence. The level of luminescence was compared to controls containing only luciferin to identify the effect of the compounds, if any, on light output as an indicator of cell viability.
# (§2) Half of the microtiter plate contained no cells. To these wells, the same reagents were added as to the cell counterpart to measure cell-independent luminescence (i.e. background luminescence). The reagents (media with luciferin or coelenterazine, with or without compounds at various concentrations) were prepared as follows:
# a) Reagent to Examine Firefly Luminescence (Cell Viability)
# Luciferin substrate available from Promega Corporation, Madison Wis., USA was initially prepared in 10 mM sodium phosphate buffer, pH 7.4 as a 100 mM stock. This luciferin stock was used to make DMEM solution containing a final concentration of 2 mM luciferin.
# Thiourea and 1-allyl-3-(2-hydroxyethyl)-2-thiourea were dissolved directly in this solution (DMEM/luciferin) to a final concentration of 30 mM. These were subsequently diluted to contain final compound concentrations of 10 mM and 1 mM.
# Another compound 6-aza-thio-thymidine was dissolved in DMSO as a 750 mM stock. The 6-aza-thio-thymidine was subsequently added to the DMEM/luciferin reagent at a final concentration of 30 mM, 10 mM, and 1 mM, while maintaining a final DMSO concentration of 4%. A DMEM/luciferin reagent was used as the control with which to compare the effect of the compound and was also made to contain a final DMSO concentration of 4%.
# Since it is believed that DMSO may help organic molecules permeat cell membranes, an additional control was included that consisted of thiourea (10 mM) reconstituted in DMSO (4%).
# (§3) The cell culture medium was removed from the cells and replaced with medium containing substrate (+/−compound) and luminescence was measured immediately. […] Fold reduction in autoluminescence was calculated by dividing the background-subtracted autoluminescence in minus compound controls by the background-subtracted autoluminescence containing the compounds.
# [2] = tested on: coelenterazine autoluminescence in Human embryonic kidney cells (293); experiment: Whole cell assay: reduction of coelenterazine autoluminescence in the presence of living cells; assay type: cell-based
# Description: as §1
# To determine the ability of the organic compounds to reduce autoluminescence, the media was removed from the cells and replaced with media containing the compounds at various concentrations and coelenterazine. Since there is no Renilla luciferase enzyme being expressed in these cells, the only luminescence observed is autoluminescence. The level of autoluminescence was compared to controls containing only coelenterazine to identify the effect of the compounds on reducing autoluminescence.
# as §2
# b) Reagent to Examine Reduction in Autoluminescence
# Coelenterazine substrate was initially dissolved in Stop & Glob Reagent Solvent (both available from Promega Corporation, Madison Wis., USA) as a 30 mM stock. This coelenterazine stock was used to make DMEM media containing 0.6 mM coelenterazine as the final concentration. DMEM/coelenterazine reagents were made in a similar fashion as the DMEM/luciferin reagents described in a).
# as §3
# Renilla luciferase [3] = biological target: T1, Renilla luciferase (Renilla reniformis, UniProt P27652)
# T1 sequence (P27652 whole entry): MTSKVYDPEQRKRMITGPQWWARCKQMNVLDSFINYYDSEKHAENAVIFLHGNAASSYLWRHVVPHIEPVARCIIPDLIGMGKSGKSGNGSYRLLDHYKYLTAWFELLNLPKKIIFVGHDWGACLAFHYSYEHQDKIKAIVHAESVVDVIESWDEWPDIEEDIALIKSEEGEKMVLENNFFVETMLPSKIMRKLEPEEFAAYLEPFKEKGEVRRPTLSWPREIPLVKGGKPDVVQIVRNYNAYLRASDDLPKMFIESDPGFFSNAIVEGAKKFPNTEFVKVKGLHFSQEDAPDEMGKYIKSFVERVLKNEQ
# Description: (§4) The enzymatic luminescence measurement may have an autoluminescence component.
# (§5) Format B Experiments were performed in a reaction volume of 150 μl Matthew's Buffer (referred to herein as MB) as either a standard MB composition or a modified MB composition as described below. As with Format A, reactions with and without Renilla luciferase were carried out to observe the effect of the organic compounds on assay sensitivity.
# (§6) 1× Matthew's buffer standard composition consists of:
# (§7) In order to observe the autoluminescence enhanced only by the detergent, for the majority of the experiments, BSA was replaced with porcine gelatin as the enzyme stabilizer at a final concentration of 0.15 mg/ml or 0.45 mg/ml. Taking all the variants into account the format can be sub-divided in 4 different versions:
# (§8) Reactions were carried out in triplicate by adding each of the 50 μl portions to microtiter plate wells and mixing. The resulting relative light units generated per well was measured immediately using a Dynex MLX Microtiter plate luminometer or a Wallac 1450 MicroBeta Trilux plate luminometer (1 second/well) or alternatively, the plate was incubated at 22° C. and read after 5 minutes in the same fashion.
# (§9) b) effect of the compound on enzymatic luminescence measurement in the presence of the compound when compared to control samples lacking only the compound.
# [4] = Description: as §4, §5, §6, §7, §8
# (§10) a) fold-decrease in non-enzymatic autoluminescence measurement in the presence of the compound when compared to the absence of the compound and, […]
# [5] = remark: listed apart in the source
# Description: as §4
# (§11) Format A Assays were performed in the presence of Steady Glo® reagent (SG) and Stop & Glo® reagent (S+G), (Promega Corporation, Madison Wis.). A total reaction volume of 150 μl consisted of:
# (§12) 50 μl F-12 (Ham) media+1 mg/ml gelatin (with or without enzyme^1)
# (§13) 50 μl S+G (containing substrate^2)
# (§14) 50 μl SG ^1 Renilla luciferase enzyme was added to F-12 cell culture media containing 1% gelatin, to a concentration of approximately 2.5 ng/50 μl media. Reactions in the absence of Renilla luciferase reveal the effect of the compound on autoluminescence while reactions in the presence of enzyme reveal the effect of the compound on Renilla luciferase-catalyzed luminescence.^2 The S+G reagent was prepared as per manufacturer's instructions, with the exception that for these experiments a S+G solvent three times more concentrated than normal was used to resuspend the S+G substrate.
# (§15) The compound to be tested was re-suspended in either SG or S+G reagent to a final concentration of SG or S+G of (1×). The compound was added so the final concentration in the 150 μl total volume would be that listed in Table 1 and the reagent was diluted to the a final of 50 μl with water. For controls, the SG or S+G reagent was brought up to 50 μl with water or with the solvent used to dissolve the compound of interest. For example, if a compound needed to be dissolved in DMSO (dimethyl sulphoxide), an equal volume of DMSO was added to the control reaction. Unless otherwise indicated, the compounds were first dissolved in water.
# (§16) For each concentration of a particular compound, a mixture containing all of the components in sufficient amounts for four reactions (i.e. 200 μl media, 200 μl SG, 200 μl S+G) was assembled. From this mixture, 150 μl was dispensed into triplicate wells on a 96-well plate. Alternatively, reactions were sometimes assembled in each well of the plate by adding each of the 50 μl portions and mixing. The plate was incubated at 22° C. and after 5 minutes the luminescence was measured using a Dynex plate luminometer (1 second measurement per well).
# as §10
# Renilla luciferase [6] = biological target: T1, Renilla luciferase; settings: Format A
# Description: as §4, §11, §12, §13, §14, §15, §16, §9
# [7] = 1 mM compound, no additives to media
# [8] = 10 mM compound, no additives to media
# [9] = 30 mM compound, no additives to media
# [10] = 1 mM compound, 4% DMSO in media
# [11] = 10 mM compound, 4% DMSO in media
# [12] = 30 mM compound, 4% DMSO in media
# [13] = 3 mM compound, Format B3 (gelatin, detergent)
# [14] = 3 mM compound, Format B3 with Tween-20
# [15] = 3 mM compound, Format B4 + 10 mM sodium hydrosulfate
# [16] = 100 mM compound, Format B3 (gelatin, detergent)
# [17] = 10 mM compound, Format B4 (gelatin, no detergent)
# [18] = 100 mM compound, Format B4 (gelatin, no detergent)
# [19] = 10 mM compound, Format B3 (gelatin, detergent)
# [20] = 30 mM compound, Format B3 (gelatin, detergent)
# [21] = 30 mM compound, Format B4 (gelatin, no detergent)
smiles,measurement,setting,value
"C=CCNC(=S)NCCO [1-Allyl-3-(2-hydroxyethyl)-2-thiourea, 1-allyl-3-(2-hydroxyethyl)-2-thiourea]",Effects on firefly luminescence,[1]; [7],No
same,Effects on firefly luminescence,[1]; [8],"Yes, decreases"
same,Effects on firefly luminescence,[1]; [9],"Yes, decreases"
same,Fold Decrease in Autoluminescence,[2]; [7],3.5 fold
same,Fold Decrease in Autoluminescence,[2]; [8],12 fold
same,Fold Decrease in Autoluminescence,[2]; [9],35 fold
Cc1nn([C@H]2C[C@H](O)[C@@H](CO)O2)c(=S)[nH]c1=O [6-aza-thio-thymidine],Effects on firefly luminescence,[1]; [10],No
same,Effects on firefly luminescence,[1]; [11],No
same,Effects on firefly luminescence,[1]; [12],"Yes, decreases"
same,Fold Decrease in Autoluminescence,[2]; [10],3 fold
same,Fold Decrease in Autoluminescence,[2]; [11],23 fold
same,Fold Decrease in Autoluminescence,[2]; [12],525 fold
NC(N)=S [Compound 1],Effect on luminescence,Renilla luciferase [3]; [13],No effect
same,Effect on luminescence,Renilla luciferase [3]; [14],No effect
same,Effect on luminescence,Renilla luciferase [3]; [15],No effect
same,Effect on luminescence,Renilla luciferase [3]; [16],No effect
same,Fold decrease autoluminescence,[4]; [13],120 fold
same,Fold decrease autoluminescence,"[4]; 3 mM compound, Format B3 + 10 mM sodium hydrosulfate",21.6 fold
same,Fold decrease autoluminescence,[4]; [14],100 fold
same,Fold decrease autoluminescence,"[4]; 3 mM compound, Format B3 with Zwittergent",6 fold
same,Fold decrease autoluminescence,[4]; [15],2.6 fold
same,Fold decrease autoluminescence,[4]; [17],2 fold
same,Fold decrease autoluminescence,"[4]; 50 mM compound, Format B3 + 17% DMSO",500 fold
same,Fold decrease autoluminescence,"[4]; 50 mM compound, Format B4 + 17% DMSO",15 fold
same,Fold decrease autoluminescence,[4]; [16],290 fold
same,Fold decrease autoluminescence,[4]; [18],8.5 fold
same,Fold decrease autoluminescence,"[4]; 316 mM compound, Format B2 (BSA, no detergent)",2 fold
same,Fold decrease autoluminescence,"[5]; 33 mM compound, Format A",15 fold
same,Effect on luminescence,Renilla luciferase [6]; 33 mM compound,No effect
NC(N)=[Se] [Compound 2],Effect on luminescence,Renilla luciferase [3]; [19],No effect
same,Fold decrease autoluminescence,[4]; [19],70 fold
same,Fold decrease autoluminescence,"[5]; 10 mM compound, Format A",100 fold
same,Effect on luminescence,Renilla luciferase [6]; 10 mM compound,No effect
CC(N)=S [Compound 3],Fold decrease autoluminescence,"[4]; 33 mM compound, Format B3 (gelatin, detergent)",545 fold
same,Fold decrease autoluminescence,"[4]; 33 mM compound, Format B4 (gelatin, no detergent)",3.4 fold
same,Fold decrease autoluminescence,"[5]; 33 mM compound, Format A",100 fold
C=CCNC(=S)NCCO [Compound 4],Fold decrease autoluminescence,[4]; [20],500 fold
same,Fold decrease autoluminescence,[4]; [21],3.9 fold
same,Fold decrease autoluminescence,"[5]; 10 mM compound, Format A",3 fold
same,Effect on luminescence,Renilla luciferase [6]; 10 mM compound,No effect
S=C(Nc1ccccc1)Nc1cscn1 [Compound 5],Fold decrease autoluminescence,"[5]; 10 mM compound, Format A",115 fold
Cc1c[nH]c(=S)[nH]c1=O [Compound 6],Fold decrease autoluminescence,"[4]; 32 mM compound, Format B3 + 33% DMSO",660 fold
same,Fold decrease autoluminescence,"[4]; 32 mM compound, Format B4 + 33% DMSO",120 fold
same,Fold decrease autoluminescence,"[5]; 32 mM compound, Format A + 17% DMSO",65 fold
CON=C(C(=O)O)c1csc(N)n1 [Compound 7],Fold decrease autoluminescence,[4]; [20],7 fold
same,Fold decrease autoluminescence,[4]; [21],6.2 fold
NCCS [Compound 8],Effect on luminescence,Renilla luciferase [3]; [20],No effect
same,Fold decrease autoluminescence,[4]; [20],20 fold
same,Fold decrease autoluminescence,[4]; [21],3.5 fold
same,Fold decrease autoluminescence,"[5]; 100 mM compound, Format A",6 fold
same,Effect on luminescence,Renilla luciferase [6]; 100 mM compound,No effect
OC(CS)CC(O)CS (stereo not shown) [Compound 9],Effect on luminescence,Renilla luciferase [3]; [21],No effect
same,Fold decrease autoluminescence,[4]; [20],13 fold
same,Fold decrease autoluminescence,[4]; [21],2.5 fold
same,Fold decrease autoluminescence,[4]; [18],3 fold
CC(=O)NC(CS)C(=O)O (stereo not shown) [Compound 11],Effect on luminescence,Renilla luciferase [3]; [20],No effect
same,Fold decrease autoluminescence,[4]; [20],2 fold
same,Fold decrease autoluminescence,[4]; [21],2.3 fold
same,Fold decrease autoluminescence,[4]; [18],3.7 fold
N#C[S-].[K+] [K SCN],Effect on luminescence,Renilla luciferase [3]; [19],No effect
same,Fold decrease autoluminescence,[4]; [19],55 fold
same,Fold decrease autoluminescence,[4]; [17],1.7 fold
NC(N)=S [thiourea],Effects on firefly luminescence,[1]; [7],No
same,Effects on firefly luminescence,[1]; [11],No
same,Effects on firefly luminescence,[1]; [8],No
same,Effects on firefly luminescence,[1]; [9],"Yes, decreases"
same,Fold Decrease in Autoluminescence,[2]; [7],3.4 fold
same,Fold Decrease in Autoluminescence,[2]; [11],12 fold
same,Fold Decrease in Autoluminescence,[2]; [8],16 fold
same,Fold Decrease in Autoluminescence,[2]; [9],40 fold
